Measurements reported in patent US20250051391A1, “PEPTIDE INHIBITORS AND METHODS FOR INHIBITING PROTEIN AGGREGATION IN NEURONS AND NEURODEGENERATIVE DISEASES” (THE GOVERNING COUNCIL OF THE UNIVERSITY OF TORONTO, priority 2021, published 2025).
Ends that are not written are not given here.

Experiments:
[1] = tested on: HEK293 cells overexpressing human a-syn (WT); assay: Cytotoxicity screen of lentiviral 7-mer peptide library, Alpha Syn (WT) cells under MG132; assay type: cell-based
Description: (§1) A screening system to discover candidate peptides to perturb endogenous PPIs based on libraries of short linear interaction motifs that mediate a large fraction (˜30%) of human PPIs (10-12) was recently developed. Here, a lentiviral library of 50,549 7-mer peptide motifs (13) on a green fluorescent protein (GFP) scaffold (FIG. 1A) was used. Cells in a pooled format were infected and the amino acid sequence of each peptide served as its own barcode. By using a low multiplicity of infection followed by puromycin selection, each infected cell expressed one unique GFP-peptide. Peptides that reduced a-syn-mediated cytotoxicity or a-syn oligomers in parallel (FIG. 1A), were screened for.
(§2) To cause cytotoxicity relevant to PD, proteostatic stress in HEK293 cells was induced by inhibiting the proteasome with MG132 and inducing the overexpression of human a-syn (WT) from idiopathic PD in one screen and the more toxic A53T mutant from familial PD in a second screen. The combination of a-syn overexpression and pharmacological proteasome inhibition led to death of most cells, with only those that expressed a protective peptide surviving. By extracting genomic DNA from the surviving cells and amplifying the peptide coding sequences, the protective peptides (FIG. 1A) were identified.
(§3) PCR primers that included the Illumina adaptor sequences were used to amplify peptide coding sequences recovered from selection and cell sorting. Results were demultiplexed, and peptide counts were tallied. After demultiplexing, only reads with an average quality Phred score of >30 were selected, and frequencies were calculated. Finally, the reads were then normalized to the total number of peptides read for that sample population, and a scalar factor was applied. In parallel, ˜25 individual colonies were Sanger sequenced to compare to the NGS data.
(§4) Lentiviruses were made in a 15 cm dish format by transfecting packaging cells (293T) with a three-plasmid system as previously described. Viral transduction of HEK293T cells, tet-off split luciferase a-syn cells, tet-off parent cells, and SH-SY5Y cells were performed with a multiplicity of infection of 0.3 (MOI=0.3). Infected cells were selected in puromycin-containing medium to eliminate uninfected cells and three aliquots of cells were collected for sampling of the initial (TO) cell population. Cells were treated with MG132 at concentrations of 0 μM, 10 μM, 25 μM or 50 μM. For the cell viability screen, surviving cells were collected and gDNA was extracted for identification of peptide inhibitors of cell toxicity. For the inhibition of a-syn aggregation screen, split YFP-a-syn constructs were transfected following stable expression of the peptides. Cells were sorted based on their GFP fluorescence intensities with a FACSVantage SE cell sorter (BD Bioscience).
(§5) Genomic DNA (gDNA) from peptide expressing cells at different time-points was extracted using QIAamp DNA Blood Mini Kit. PCR amplifications of peptides from gDNA in parallel with the lentiviral plasmid library (naïve library) were performed using indexed Illumina PCR primers to incorporate both the Illumina adapter sequences and indexing sequences. Each 50 μl reaction contained 3.2 μg of template, 2×PCR buffer, 2× enhancer solution, 300 μM each dNTP, 900 nM each of Adapter A (5′-[…]-[…]-3′) (SEQ ID NO: 42) and Adapter B (5′-[…]-[…]-3′) (SEQ ID NO: 43), 1 mM MgSO4, 3.75 units of Platinum Pfx polymerase, and water to 50 μl. The PCR reaction was performed by denaturing at 94° C. for 5 minutes, followed by cycling (94° C. for 30 seconds, 65° C. for 30 seconds, 68° C. for 30 seconds)×28 cycles, 68° C. for 5 minutes, then cooling to 4° C. The resulting 244 bp product was purified by electrophoresis in 2% agarose followed by gel extraction. Peptide libraries were quantified using Quant-It assay (Invitrogen) and pooled. […]

[2] = tested on: HEK293 cells overexpressing A53T a-syn; assay: Cytotoxicity screen of lentiviral 7-mer peptide library, Alpha syn A53T cells under MG132; assay type: cell-based, human
Description: as §1, §2, §3, §4, §5

[3] = biological target: T1, CHMP2B (Homo sapiens, UniProt Q9UQN3); assay: a-syn competition fluorescence polarization assay (FITC-Pdpep1.3 and CHMP2B); assay type: binding; settings: 50 nM FITC-Pdpep1.3, 1 μM CHMP2B, a-syn titrated
T1 construct: against CHMP2B 1-199 truncation and CHMP2B full length; His tag (implied by Ni-NTA purification; pET-DEST42 vector); made in house; host or cells: E. coli Overexpress C41

[4] = tested on: A53T a-syn iPSC-derived dopaminergic neurons; assay: Human iPSC-derived dopaminergic neurons with A53T a-syn mutation; assay type: cell-based; settings: A53T a-syn iPSC-derived dopaminergic neurons vs isogenic controls
Method: iCell Dopa neurons (A53T a-syn mutant and isogenic control) were purchased from Fujifilm Cellular Dynamics (Madison, WI, USA) and cultured as per manufacturer's instructions. Briefly, cells were plated in complete maintenance medium provided by the manufacturer on poly-L-ornithine/laminin coated plates (ibidi). Cells recovered from thawing for 24 h and then were transduced with AAV-Scramble1.3-RFP or AAV-Pdpep1.3-RFP for 48 h at which time media was completely changed. Cells were fixed using 4% PFA at 7 days post-plating.
After fixation, cells were permeabilized with 0.2% Triton X-100 for 15 min, washed 3 times with PBS and then incubated with blocking solution (1% BSA, 22.52 mg/mL glycine, 0.1% Tween-20 in PBS) for 1 h. […] Following another 3 PBS washes, nuclei were counterstained with DAPI (ThermoFisher) and then coverslips were mounted on slides using fluorescence mounting medium (DAKO) and sealed using clear nail varnish.
Confocal images of primary cortical neurons, dopaminergic neurons, and LAMP1 staining within the SN were processed using Imaris software (Oxford instruments). Z stacks were projected to give a 3D reconstruction of the field of view and mean pixel intensity per GFP^+ cell (or RFP^+ cell for V1S/SV2 experiments) was calculated for a-syn or LAMP1 signal using the software's surfaces module. […]

[5] = normalized Illumina peptide counts, 0 uM MG132
[6] = normalized Illumina peptide counts, 10 µM MG132
[7] = normalized Illumina peptide counts, 25 µM MG132
[8] = normalized Illumina peptide counts, 50 µM MG132

T1 sequence (Q9UQN3 whole entry, the tested form may be a part): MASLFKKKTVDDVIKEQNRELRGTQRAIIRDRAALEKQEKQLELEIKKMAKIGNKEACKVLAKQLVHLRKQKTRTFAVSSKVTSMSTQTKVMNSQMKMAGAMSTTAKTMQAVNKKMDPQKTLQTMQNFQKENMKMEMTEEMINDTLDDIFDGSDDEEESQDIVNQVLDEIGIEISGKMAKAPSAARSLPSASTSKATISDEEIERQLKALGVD

Substance	Slope Norm Reads [1]	Reads 0 uM MG132 [1, 5]	Reads 10 UM MG132 [1, 6]	Reads 25 UM MG132 [1, 7]	Reads 50 UM MG132 [1, 8]	Slope Norm Reads [2]	Reads 0 uM MG132 [2, 5]	Reads 10 UM MG132 [2, 6]	Reads 25 UM MG132 [2, 7]	Reads 50 UM MG132 [2, 8]	competition with a-syn for binding to CHMP2B [3]	LAMP1 levels [4]	a-syn levels [4]
IPIQLKA [PDpep1, top hit of all screens; maps to CHMP2B residues 203-209]	3.45	90	1	1629	3375	40.54	168	20	3859	13308			
DEEIERQLKALG [PDpep1.3]											competed for binding to CHMP2B	returned both a-syn and LAMP1 levels to those of controls	returned both a-syn and LAMP1 levels to those of controls
